Where a SMILES comes first, the peptide text is derived from it. [ ]: non-standard residue; d: D form.
Columns and labels:
Type in all cases: cell-based
[1] = system: clinical strains of S. pneumoniae; experiment: MIC, microdilution, clinical strains; conditions: 0.02% BSA, 0.2% acetic acid
Experimental: (§1) Minimum inhibition concetrations (MICs) were determined against Escherichia coli (ATCC 25922), Staphylococcus aureus (ATCC 25923), Klebsiella pneumoniae (ATCC 10031) and Pseudomonas aeruginosa (ATCC 27853). Also clinical strains of E. coli, K. pneumoniae, E. cloacae, P. aeruginosa, Serratia marcescens, Proteus mirabilis, S. pneumoniae, Acinetobacter baumannii, A. johnsonii and S. aureus were used for MICs assays. Additionally, clinical strains of yeast including Candida albicans, C. glabrata, C. parapsilosis and C. quillermondiae were used. The susceptibility of these microorganisms to Chain peptides were determined using micro broth dilution assay. Colonies of the respective microorganism from Muller Hinton (MH) agar plates incubated overnight were suspended in MH broth media and final concentration of microorganism was adjusted to 5.0×10^5 cfu/ml. An aliquot of 10 μl of each Chain peptide, or gentamicin, tetracycline as reference antibiotics were added in differing concentrations along with 90 μl of bacterial suspension to 96 well polypropylene plates and incubated at 37° C. for 20 to 24 hours. Concentrations of Chain peptides and reference antibiotics ranged from 0.125 to 128 μg/ml and the MICs were recorded as the lowest concentration with no visual growth of bacteria. Similarly, antifungal MICs were tested in Potato dextrose broth.
(§2) Clinical strains of yeasts including Candida albicans, C. glabrata, C. parapsilosis and C. quillermondiae were also tested with the 12 Chain peptides. The minimum inhibitory concentration (MICs) varied between these peptides and are presented in Tables 4a, 4b, 4c and 5a, 5b, 5c. Peptides Chain 105, 201 and 308 are broad spectrum antimicrobials with MICs between 0.5-32 μg/ml against all the bacteria and yeasts tested, except Serratia marcescens and Proteus mirabilis, against which the MICs were between 64-128 μg/ml. Peptide Chain 306 has narrow spectrum activity against E. coli at 1 μg/ml and for the rest of the bacterial strains at >32 μg/ml (FIG. 10c).

[2] = system: clinical strains of E. cloacae; experiment: MIC, microdilution, clinical strains; conditions: 0.02% BSA, 0.2% acetic acid
Experimental: as §1, §2

[3] = system: clinical strains of Proteus mirabilis; experiment: MIC, microdilution, clinical strains; conditions: 0.02% BSA, 0.2% acetic acid
Experimental: as §1, §2

[4] = system: clinical strains of S. aureus; experiment: MIC, microdilution, clinical strains; conditions: 0.02% BSA, 0.2% acetic acid
Experimental: as §1, §2

[5] = system: clinical strains of Serratia marcescens; experiment: MIC, microdilution, clinical strains; conditions: 0.02% BSA, 0.2% acetic acid
Experimental: as §1, §2

[6] = system: clinical strains of E. coli; experiment: MIC, microdilution, clinical strains; conditions: microdilution, Muller Hinton broth-cation adjusted, 0.02% BSA, 0.2% acetic acid
Experimental: as §1, §2

[7] = system: clinical strains of K. pneumoniae; experiment: MIC, microdilution, clinical strains; conditions: 0.02% BSA, 0.2% acetic acid
Experimental: as §1, §2

[8] = system: clinical strains of P. aeruginosa; experiment: MIC, microdilution, clinical strains; conditions: 0.02% BSA, 0.2% acetic acid
Experimental: as §1, §2

C. quillermondiae = experiment: MIC, clinical yeast strains; design: Minimum inhibitory concentration: unit: μg/ml; conditions: C. quillermondiae clinical yeast strain 1
Experimental: as §1, §2

Candida albicans = experiment: MIC, clinical yeast strains
Experimental: as §1, §2

C. glabrata = experiment: MIC, clinical yeast strains
Experimental: as §1, §2

C. parapsilosis = experiment: MIC, clinical yeast strains
Experimental: as §1, §2

[9] = Candida albicans clinical yeast strain 1
[10] = Candida albicans clinical yeast strain 2
[11] = Candida albicans clinical yeast strain 3
[12] = Candida albicans clinical yeast strain 4
[13] = Candida albicans clinical yeast strain 5
[14] = C. glabrata clinical yeast strain 1
[15] = C. glabrata clinical yeast strain 2
[16] = C. glabrata clinical yeast strain 3
[17] = C. glabrata clinical yeast strain 4
[18] = C. parapsilosis clinical yeast strain 1
[19] = C. parapsilosis clinical yeast strain 2
[20] = C. parapsilosis clinical yeast strain 3
[21] = C. parapsilosis clinical yeast strain 4

Compound: CC(C)C[C@@H](NC(=O)[C@@H](Cc1c[nH]c2ccccc12)NC(=O)[C@@H](Cc1ccccc1)NC(=O)[C@@H](Cc1c[nH]c2ccccc12)NC(=O)[C@@H](CCCCN)NC(=O)[C@@H](CCCNC(=N)N)NC(=O)[C@H](N)Cc1c[nH]c2ccccc12)C(=O)N[C@H](Cc1ccccc1)C(=O)N[C@H](CCCCN)C(=O)N[C@H](CCCCN)C(=O)N[C@H](CCCNC(=N)N)C(=O)O [Chain309D] (H-[dW][dR][dK][dW][dF][dW][dL][dF][dK][dK][dR]-OH)
- Minimum inhibitory concentration ([1]; Streptococcus pneumoniae strain 1, Muller Hinton broth-cation adjusted): 64
- Minimum inhibitory concentration ([1]; Streptococcus pneumoniae strain 2, Muller Hinton broth-cation adjusted): 64
- Minimum inhibitory concentration ([1]; Streptococcus pneumoniae strain 3, Muller Hinton broth-cation adjusted): 64
- Minimum inhibitory concentration ([1]; Streptococcus pneumoniae strain 4, Muller Hinton broth-cation adjusted): 64
- Minimum inhibitory concentration ([1]; Streptococcus pneumoniae strain 5, Muller Hinton broth-cation adjusted): 64
- Minimum inhibitory concentration ([2]; Enterobacter cloacae strain 1, Muller Hinton broth-cation adjusted): >128
- Minimum inhibitory concentration ([2]; Enterobacter cloacae strain 2, Muller Hinton broth-cation adjusted): 128
- Minimum inhibitory concentration ([2]; Enterobacter cloacae strain 3, Muller Hinton broth-cation adjusted): 64
- Minimum inhibitory concentration ([2]; Enterobacter cloacae strain 4, Muller Hinton broth-cation adjusted): 64
- Minimum inhibitory concentration ([2]; Enterobacter cloacae strain 5, Muller Hinton broth-cation adjusted): 32
- Minimum inhibitory concentration ([3]; Proteus mirabilis strain 1, Muller Hinton broth-cation adjusted): >128
- Minimum inhibitory concentration ([3]; Proteus mirabilis strain 2, Muller Hinton broth-cation adjusted): >128
- Minimum inhibitory concentration ([3]; Proteus mirabilis strain 3, Muller Hinton broth-cation adjusted): >128
- Minimum inhibitory concentration ([3]; Proteus mirabilis strain 4, Muller Hinton broth-cation adjusted): >128
- Minimum inhibitory concentration ([3]; Proteus mirabilis strain 5, Muller Hinton broth-cation adjusted): >128
- Minimum inhibitory concentration ([4]; Staphylococcus aureus strain 1, Muller Hinton broth-cation adjusted): 8
- Minimum inhibitory concentration ([4]; Staphylococcus aureus strain 2, Muller Hinton broth-cation adjusted): 16
- Minimum inhibitory concentration ([4]; Staphylococcus aureus strain 3, Muller Hinton broth-cation adjusted): 8
- Minimum inhibitory concentration ([4]; Staphylococcus aureus strain 4, Muller Hinton broth-cation adjusted): 8
- Minimum inhibitory concentration ([4]; Staphylococcus aureus strain 5, Muller Hinton broth-cation adjusted): 8
- Minimum inhibitory concentration ([5]; Serratia marcescens strain 1, Muller Hinton broth-cation adjusted): >128
- Minimum inhibitory concentration ([5]; Serratia marcescens strain 2, Muller Hinton broth-cation adjusted): >128
- Minimum inhibitory concentration ([5]; Serratia marcescens strain 3, Muller Hinton broth-cation adjusted): >128
- Minimum inhibitory concentration ([5]; Serratia marcescens strain 4, Muller Hinton broth-cation adjusted): >128
- Minimum inhibitory concentration ([5]; Serratia marcescens strain 5, Muller Hinton broth-cation adjusted): >128
- Minimum inhibitory concentration ([6]; Escherichia coli strain 1): 0.5
- Minimum inhibitory concentration ([6]; Escherichia coli strain 2): 32
- Minimum inhibitory concentration ([6]; Escherichia coli strain 3): 16
- Minimum inhibitory concentration ([6]; Escherichia coli strain 4): 32
- Minimum inhibitory concentration ([6]; Escherichia coli strain 5): 16
- Minimum inhibitory concentration ([7]; Klebsiella pneumoniae strain 1, Muller Hinton broth-cation adjusted): 128
- Minimum inhibitory concentration ([7]; Klebsiella pneumoniae strain 2, Muller Hinton broth-cation adjusted): 32
- Minimum inhibitory concentration ([7]; Klebsiella pneumoniae strain 3, Muller Hinton broth-cation adjusted): >128
- Minimum inhibitory concentration ([7]; Klebsiella pneumoniae strain 4, Muller Hinton broth-cation adjusted): 32
- Minimum inhibitory concentration ([7]; Klebsiella pneumoniae strain 5, Muller Hinton broth-cation adjusted): 128
- Minimum inhibitory concentration ([8]; Pseudomonas aeruginosa strain 1, Muller Hinton broth-cation adjusted): 16
- Minimum inhibitory concentration ([8]; Pseudomonas aeruginosa strain 2, Muller Hinton broth-cation adjusted): 32
- Minimum inhibitory concentration ([8]; Pseudomonas aeruginosa strain 3, Muller Hinton broth-cation adjusted): 16
- Minimum inhibitory concentration ([8]; Pseudomonas aeruginosa strain 4, Muller Hinton broth-cation adjusted): 32
- Minimum inhibitory concentration ([8]; Pseudomonas aeruginosa strain 5, Muller Hinton broth-cation adjusted): 8
- Minimum inhibitory concentration (C. quillermondiae): 8
- Minimum inhibitory concentration (Candida albicans; [9]): 32
- Minimum inhibitory concentration (Candida albicans; [10]): 32
- Minimum inhibitory concentration (Candida albicans; [11]): 16
- Minimum inhibitory concentration (Candida albicans; [12]): 16
- Minimum inhibitory concentration (Candida albicans; [13]): 32
- Minimum inhibitory concentration (C. glabrata; [14]): 32
- Minimum inhibitory concentration (C. glabrata; [15]): 64
- Minimum inhibitory concentration (C. glabrata; [16]): 4
- Minimum inhibitory concentration (C. glabrata; [17]): 128
- Minimum inhibitory concentration (C. parapsilosis; [18]): 64
- Minimum inhibitory concentration (C. parapsilosis; [19]): 64
- Minimum inhibitory concentration (C. parapsilosis; [20]): 32
- Minimum inhibitory concentration (C. parapsilosis; [21]): 16

Compound: C[C@@H]1[C@H](O)[C@@H](C)/C=C/C=C/C=C/C=C/C=C/C=C/C=C/[C@H](O[C@@H]2O[C@H](C)[C@@H](O)[C@H](N)[C@@H]2O)C[C@@H]2O[C@](O)(C[C@@H](O)C[C@@H](O)[C@H](O)CC[C@@H](O)C[C@@H](O)CC(=O)O[C@H]1C)C[C@H](O)[C@H]2C(=O)O [Amphotericin B]
- Minimum inhibitory concentration (C. quillermondiae): 2
- Minimum inhibitory concentration (Candida albicans; [9]): 2
- Minimum inhibitory concentration (Candida albicans; [10]): 0.5
- Minimum inhibitory concentration (Candida albicans; [11]): 2
- Minimum inhibitory concentration (Candida albicans; [12]): 2
- Minimum inhibitory concentration (Candida albicans; [13]): 2
- Minimum inhibitory concentration (C. glabrata; [14]): 4
- Minimum inhibitory concentration (C. glabrata; [15]): 4
- Minimum inhibitory concentration (C. glabrata; [16]): 2
- Minimum inhibitory concentration (C. glabrata; [17]): 4
- Minimum inhibitory concentration (C. parapsilosis; [18]): 2
- Minimum inhibitory concentration (C. parapsilosis; [19]): 2
- Minimum inhibitory concentration (C. parapsilosis; [20]): 2
- Minimum inhibitory concentration (C. parapsilosis; [21]): 2
